Test system: Pyricularia oryzae
Type: cell-based
Settings: 125 ppm, microtiter plate, absorption at 405 nm on the seventh day after inoculation

CCCCCCCCc1c(N)nc(SC)nc1CC [I-3, 6-ethyl-2-methylsulfanyl-5-octylpyrimidin-4-ylamine]
growth (relative growth of the pathogen): inhibited completely

From patent US20080176744A1 (priority 2005, published 2008)
